Assays:
[1] = target: T1, Phosphatidylinositol 4,5-bisphosphate 3-kinase catalytic subunit alpha isoform (Homo sapiens, UniProt P42336); experiment: Inhibition of N-terminal myristoylated P110alpha (unknown origin)-mediated AKT phosphorylation at Ser473 expressed in rat Rat1 cells by ELISA; assay type: cell-based
[2] = target: T2, Phosphatidylinositol 4,5-bisphosphate 3-kinase catalytic subunit delta isoform (Homo sapiens, UniProt O00329); experiment: Inhibition of N-terminal myristoylated P110delta (unknown origin)-mediated AKT phosphorylation at Ser473 expressed in rat Rat1 cells by ELISA; assay type: cell-based
T2 sequence (O00329 whole entry): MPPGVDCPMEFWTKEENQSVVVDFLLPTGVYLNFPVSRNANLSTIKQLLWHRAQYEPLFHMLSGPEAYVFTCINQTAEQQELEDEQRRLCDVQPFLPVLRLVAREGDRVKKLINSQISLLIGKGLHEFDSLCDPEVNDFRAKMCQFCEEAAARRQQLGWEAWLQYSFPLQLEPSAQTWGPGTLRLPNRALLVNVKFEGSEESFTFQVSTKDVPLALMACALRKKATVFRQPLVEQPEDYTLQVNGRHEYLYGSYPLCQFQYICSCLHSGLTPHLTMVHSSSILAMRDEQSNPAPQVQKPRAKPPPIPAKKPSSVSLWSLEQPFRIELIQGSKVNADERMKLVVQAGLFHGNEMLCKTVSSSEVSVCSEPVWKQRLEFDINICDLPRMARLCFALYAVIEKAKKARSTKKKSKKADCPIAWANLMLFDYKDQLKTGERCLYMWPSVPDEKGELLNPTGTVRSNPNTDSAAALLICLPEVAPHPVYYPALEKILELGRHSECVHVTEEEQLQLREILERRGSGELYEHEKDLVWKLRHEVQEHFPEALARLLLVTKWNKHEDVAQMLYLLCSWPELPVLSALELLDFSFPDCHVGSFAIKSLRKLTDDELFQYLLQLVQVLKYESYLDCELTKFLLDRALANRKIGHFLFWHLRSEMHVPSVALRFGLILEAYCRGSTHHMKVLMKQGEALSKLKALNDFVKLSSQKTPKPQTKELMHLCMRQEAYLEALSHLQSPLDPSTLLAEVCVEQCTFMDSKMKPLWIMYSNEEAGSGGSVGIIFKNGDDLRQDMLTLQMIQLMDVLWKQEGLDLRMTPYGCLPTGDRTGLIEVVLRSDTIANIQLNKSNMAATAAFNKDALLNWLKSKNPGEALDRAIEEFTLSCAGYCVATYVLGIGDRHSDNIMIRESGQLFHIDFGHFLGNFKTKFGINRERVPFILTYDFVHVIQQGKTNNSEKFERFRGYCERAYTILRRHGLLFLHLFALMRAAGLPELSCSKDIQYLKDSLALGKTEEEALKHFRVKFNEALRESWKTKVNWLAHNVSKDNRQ

[3] = target: T3, Phosphatidylinositol 4,5-bisphosphate 3-kinase catalytic subunit beta isoform (Homo sapiens, UniProt P42338); experiment: Inhibition of N-terminal myristoylated P110beta (unknown origin)-mediated AKT phosphorylation at Ser473 expressed in rat Rat1 cells by ELISA; assay type: cell-based
T3 sequence (P42338 whole entry, canonical isoform): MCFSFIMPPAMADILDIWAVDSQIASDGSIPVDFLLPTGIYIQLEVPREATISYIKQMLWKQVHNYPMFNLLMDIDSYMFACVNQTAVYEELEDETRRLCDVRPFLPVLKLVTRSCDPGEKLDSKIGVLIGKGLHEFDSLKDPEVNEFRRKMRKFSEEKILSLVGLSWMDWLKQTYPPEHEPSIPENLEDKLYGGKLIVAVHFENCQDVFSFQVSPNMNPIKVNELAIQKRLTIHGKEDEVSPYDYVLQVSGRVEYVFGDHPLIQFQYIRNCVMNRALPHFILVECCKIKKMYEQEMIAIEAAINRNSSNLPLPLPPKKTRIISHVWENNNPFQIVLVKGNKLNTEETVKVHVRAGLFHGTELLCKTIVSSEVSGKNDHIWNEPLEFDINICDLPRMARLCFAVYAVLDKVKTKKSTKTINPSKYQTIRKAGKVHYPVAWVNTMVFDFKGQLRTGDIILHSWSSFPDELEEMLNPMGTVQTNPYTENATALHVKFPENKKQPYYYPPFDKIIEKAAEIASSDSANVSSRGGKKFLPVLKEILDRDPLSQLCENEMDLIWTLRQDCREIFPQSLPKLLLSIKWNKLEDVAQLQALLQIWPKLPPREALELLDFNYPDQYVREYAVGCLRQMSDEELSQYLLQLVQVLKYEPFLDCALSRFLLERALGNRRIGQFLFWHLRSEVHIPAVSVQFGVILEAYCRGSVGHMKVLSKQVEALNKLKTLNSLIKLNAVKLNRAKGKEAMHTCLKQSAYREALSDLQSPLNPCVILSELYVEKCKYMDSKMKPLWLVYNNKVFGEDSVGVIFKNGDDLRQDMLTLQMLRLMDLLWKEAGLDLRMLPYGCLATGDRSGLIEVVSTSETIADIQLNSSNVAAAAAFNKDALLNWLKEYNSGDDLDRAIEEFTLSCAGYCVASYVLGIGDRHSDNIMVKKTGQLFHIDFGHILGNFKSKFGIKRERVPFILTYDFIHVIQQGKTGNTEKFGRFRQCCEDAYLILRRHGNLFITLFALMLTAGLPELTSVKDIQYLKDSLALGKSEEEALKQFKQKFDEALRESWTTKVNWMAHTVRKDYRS

[4] = Plasma protein binding in Sprague-Dawley rat at 1 mg/kg, iv; assay type: ADME, organism-based; design: dose 1 mg/kg, route intravenous; settings: read-out: PPB (converted)
[5] = Clearance in rat liver microsomes in presence of cofactor for glucuronyl transferases; assay type: ADME, Microsome; settings: read-out: CLH
[6] = Clearance in Sprague-Dawley rat at 1 mg/kg, iv; assay type: ADME, organism-based; design: dose 1 mg/kg, route intravenous; settings: in vivo
[7] = Volume of distribution at steady state in Sprague-Dawley rat at 1 mg/kg, iv; assay type: ADME, organism-based; design: dose 1 mg/kg, route intravenous; settings: in vivo, read-out: Vdss
[8] = Half life in Sprague-Dawley rat at 1 mg/kg, iv; assay type: ADME, organism-based; design: dose 1 mg/kg, route intravenous; settings: in vivo
Cytochrome P450 3A4 = Cytochrome P450 3A4 (Homo sapiens, UniProt P08684); experiment: Inhibition of CYP3A4 (unknown origin); assay type: ADME
Chain of Cytochrome P450 3A4 (P08684 whole entry, canonical isoform): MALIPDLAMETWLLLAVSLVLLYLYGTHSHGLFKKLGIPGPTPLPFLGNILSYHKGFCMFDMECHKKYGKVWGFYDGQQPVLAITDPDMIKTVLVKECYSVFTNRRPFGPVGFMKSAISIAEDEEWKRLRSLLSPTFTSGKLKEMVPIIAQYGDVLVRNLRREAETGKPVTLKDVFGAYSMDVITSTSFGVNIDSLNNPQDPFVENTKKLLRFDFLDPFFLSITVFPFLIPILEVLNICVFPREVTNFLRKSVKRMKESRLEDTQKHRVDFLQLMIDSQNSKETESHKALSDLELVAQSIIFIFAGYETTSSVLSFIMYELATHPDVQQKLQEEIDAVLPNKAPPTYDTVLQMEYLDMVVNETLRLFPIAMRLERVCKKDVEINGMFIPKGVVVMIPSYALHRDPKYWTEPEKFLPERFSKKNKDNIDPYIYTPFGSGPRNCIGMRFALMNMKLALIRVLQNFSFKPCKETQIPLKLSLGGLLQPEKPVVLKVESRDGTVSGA

[9] = target: T2, Phosphatidylinositol 4,5-bisphosphate 3-kinase catalytic subunit delta isoform; experiment: Inhibition of P110delta (unknown origin) using PIP2:PS as substrate by TR-FRET assay
[10] = target: Phosphatidylinositol 4,5-bisphosphate 3-kinase catalytic subunit gamma isoform (Homo sapiens, UniProt P48736); experiment: Inhibition of P110gamma (unknown origin) using PIP2:PS as substrate by TR-FRET assay
Chain of Phosphatidylinositol 4,5-bisphosphate 3-kinase catalytic subunit gamma isoform (P48736 whole entry, canonical isoform): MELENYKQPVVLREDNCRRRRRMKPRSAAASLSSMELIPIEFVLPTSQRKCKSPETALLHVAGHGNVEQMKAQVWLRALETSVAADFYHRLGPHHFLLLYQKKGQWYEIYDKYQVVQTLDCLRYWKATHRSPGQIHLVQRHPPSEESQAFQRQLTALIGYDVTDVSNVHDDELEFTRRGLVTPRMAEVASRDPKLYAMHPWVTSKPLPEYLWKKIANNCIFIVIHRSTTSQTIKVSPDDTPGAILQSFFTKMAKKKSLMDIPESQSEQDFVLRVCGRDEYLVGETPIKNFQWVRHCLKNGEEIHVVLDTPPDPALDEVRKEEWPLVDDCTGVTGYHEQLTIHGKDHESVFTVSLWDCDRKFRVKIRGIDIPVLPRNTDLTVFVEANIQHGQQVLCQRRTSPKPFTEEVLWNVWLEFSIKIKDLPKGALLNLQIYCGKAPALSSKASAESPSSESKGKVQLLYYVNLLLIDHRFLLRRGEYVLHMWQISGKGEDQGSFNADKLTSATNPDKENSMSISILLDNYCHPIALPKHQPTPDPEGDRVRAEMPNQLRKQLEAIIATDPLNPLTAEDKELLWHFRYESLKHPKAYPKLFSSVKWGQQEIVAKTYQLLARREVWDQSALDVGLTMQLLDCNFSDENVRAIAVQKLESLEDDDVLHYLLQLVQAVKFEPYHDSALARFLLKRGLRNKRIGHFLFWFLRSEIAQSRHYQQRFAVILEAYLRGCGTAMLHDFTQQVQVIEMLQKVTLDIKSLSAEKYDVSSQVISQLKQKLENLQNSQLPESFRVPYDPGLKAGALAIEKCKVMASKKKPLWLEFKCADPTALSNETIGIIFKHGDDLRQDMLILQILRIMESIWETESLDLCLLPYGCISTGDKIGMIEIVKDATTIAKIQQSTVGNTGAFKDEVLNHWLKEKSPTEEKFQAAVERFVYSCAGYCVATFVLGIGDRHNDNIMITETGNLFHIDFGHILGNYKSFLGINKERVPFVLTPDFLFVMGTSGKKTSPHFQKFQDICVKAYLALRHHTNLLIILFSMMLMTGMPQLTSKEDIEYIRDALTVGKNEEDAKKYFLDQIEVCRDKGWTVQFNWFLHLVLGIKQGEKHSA

[11] = target: T3, Phosphatidylinositol 4,5-bisphosphate 3-kinase catalytic subunit beta isoform; experiment: Inhibition of P110beta (unknown origin) using L-a-phosphatidylinositol as substrate by luminescence assay
[12] = target: T1, Phosphatidylinositol 4,5-bisphosphate 3-kinase catalytic subunit alpha isoform; experiment: Inhibition of P110alpha (unknown origin) using L-a-phosphatidylinositol as substrate by luminescence assay
[13] = Clearance in rat liver microsomes; assay type: ADME, Microsome; settings: read-out: CLH
[14] = Cmax in mouse at 3 mg/kg, po; assay type: ADME, organism-based; design: dose 3 mg/kg, route oral; settings: in vivo
[15] = Cmax in dog at 0.6 mg/kg, po; assay type: ADME, organism-based, Canis lupus familiaris; design: dose 0.6 mg/kg, route oral; settings: in vivo
[16] = target: Serine/threonine-protein kinase mTOR (Homo sapiens, UniProt P42345); experiment: Inhibition of mTOR (unknown origin)
[17] = Clearance in rat at 3.4 mg/kg, iv and 15 mg/kg, po; assay type: ADME, organism-based; settings: in vivo
[18] = Clearance in mouse at 1 mg/kg, iv and 3 mg/kg, po; assay type: ADME, organism-based; settings: in vivo
[19] = Oral bioavailability in dog at 0.6 mg/kg; assay type: ADME, organism-based, Canis lupus familiaris; settings: in vivo
[20] = Oral bioavailability in mouse at 3 mg/kg; assay type: ADME, organism-based; settings: in vivo
[21] = target: Phosphatidylinositol 3-kinase catalytic subunit type 3 (Homo sapiens, UniProt Q8NEB9); experiment: Inhibition of VPS34 (unknown origin)
Chain of Phosphatidylinositol 3-kinase catalytic subunit type 3 (Q8NEB9 whole entry): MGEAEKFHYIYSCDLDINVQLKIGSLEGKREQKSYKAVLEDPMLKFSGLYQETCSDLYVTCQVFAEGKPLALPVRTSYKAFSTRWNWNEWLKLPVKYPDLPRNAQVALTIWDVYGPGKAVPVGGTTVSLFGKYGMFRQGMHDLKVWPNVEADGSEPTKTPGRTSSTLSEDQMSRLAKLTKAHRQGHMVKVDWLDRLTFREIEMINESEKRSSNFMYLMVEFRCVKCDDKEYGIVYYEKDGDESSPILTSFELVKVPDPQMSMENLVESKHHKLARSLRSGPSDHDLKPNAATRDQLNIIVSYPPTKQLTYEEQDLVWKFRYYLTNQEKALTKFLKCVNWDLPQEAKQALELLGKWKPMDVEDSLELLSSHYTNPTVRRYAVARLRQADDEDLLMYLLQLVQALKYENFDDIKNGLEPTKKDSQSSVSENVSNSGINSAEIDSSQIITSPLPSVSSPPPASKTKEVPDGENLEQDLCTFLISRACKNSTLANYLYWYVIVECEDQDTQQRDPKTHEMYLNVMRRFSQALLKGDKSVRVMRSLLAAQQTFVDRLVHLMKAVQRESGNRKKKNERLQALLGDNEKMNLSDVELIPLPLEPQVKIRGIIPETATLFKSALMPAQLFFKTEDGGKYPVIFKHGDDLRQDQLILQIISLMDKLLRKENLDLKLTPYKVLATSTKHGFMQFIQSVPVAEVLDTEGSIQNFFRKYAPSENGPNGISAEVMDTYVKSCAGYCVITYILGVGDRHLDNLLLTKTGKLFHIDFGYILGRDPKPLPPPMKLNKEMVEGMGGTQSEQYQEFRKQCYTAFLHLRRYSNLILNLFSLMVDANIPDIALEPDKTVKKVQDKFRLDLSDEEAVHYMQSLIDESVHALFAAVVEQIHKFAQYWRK

[22] = target: DNA-dependent protein kinase catalytic subunit (Homo sapiens, UniProt P78527); experiment: Inhibition of DNA-PK (unknown origin)
[23] = target: Serine-protein kinase ATM (Homo sapiens, UniProt Q13315); experiment: Inhibition of ATM (unknown origin) phosphorylation at Ser1981 by cell-based assay
[24] = target: Serine/threonine-protein kinase ATR (Homo sapiens, UniProt Q13535); experiment: Inhibition of ATR (unknown origin)
[25] = Clearance in dog at 0.1 mg/kg, iv and 0.6 mg/kg, po; assay type: ADME, organism-based, Canis lupus familiaris; settings: in vivo
[26] = Cmax in rat at 15 mg/kg, po; assay type: ADME, organism-based; design: dose 15 mg/kg, route oral; settings: in vivo

T1 sequence (P42336 whole entry, canonical isoform): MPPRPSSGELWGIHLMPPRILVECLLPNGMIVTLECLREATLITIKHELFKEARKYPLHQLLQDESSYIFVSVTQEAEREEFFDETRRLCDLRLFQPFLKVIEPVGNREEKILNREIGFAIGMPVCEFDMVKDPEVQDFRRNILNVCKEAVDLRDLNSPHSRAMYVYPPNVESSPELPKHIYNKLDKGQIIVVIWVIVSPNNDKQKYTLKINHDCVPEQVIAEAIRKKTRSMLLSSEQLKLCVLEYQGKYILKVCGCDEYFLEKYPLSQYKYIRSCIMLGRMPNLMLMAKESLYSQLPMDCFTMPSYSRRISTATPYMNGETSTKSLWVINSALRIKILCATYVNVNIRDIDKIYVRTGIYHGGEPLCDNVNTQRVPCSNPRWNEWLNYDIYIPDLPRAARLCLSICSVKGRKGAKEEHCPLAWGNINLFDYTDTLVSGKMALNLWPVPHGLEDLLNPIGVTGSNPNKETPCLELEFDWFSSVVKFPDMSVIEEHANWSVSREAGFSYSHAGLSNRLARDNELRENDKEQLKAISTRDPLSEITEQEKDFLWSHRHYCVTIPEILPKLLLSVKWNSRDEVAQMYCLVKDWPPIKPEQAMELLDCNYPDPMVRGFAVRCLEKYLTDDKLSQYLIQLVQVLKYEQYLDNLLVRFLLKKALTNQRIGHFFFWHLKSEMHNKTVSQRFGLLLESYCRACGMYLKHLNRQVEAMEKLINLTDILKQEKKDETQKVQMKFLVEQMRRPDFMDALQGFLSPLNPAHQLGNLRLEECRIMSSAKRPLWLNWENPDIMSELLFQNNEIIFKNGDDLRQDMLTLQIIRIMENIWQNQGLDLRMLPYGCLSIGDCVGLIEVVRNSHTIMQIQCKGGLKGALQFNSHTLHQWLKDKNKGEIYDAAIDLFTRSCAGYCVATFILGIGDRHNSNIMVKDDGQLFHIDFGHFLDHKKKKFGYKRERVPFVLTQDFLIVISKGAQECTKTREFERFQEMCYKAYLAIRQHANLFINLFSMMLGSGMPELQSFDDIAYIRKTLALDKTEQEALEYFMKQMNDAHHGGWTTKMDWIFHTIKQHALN

Compound | IC50 [1] [nM] | IC50 [2] [nM] | IC50 [3] [nM] | microsomal CLint [5] [µL/min/mg] | IC50 (Cytochrome P450 3A4) [nM] | IC50 [9] [nM] | IC50 [10] [nM] | IC50 [11] [nM] | IC50 [12] [nM] | microsomal CLint [13] [µL/min/mg] | also measured
Cc1nc(NC(=O)N2CCC[C@H]2C(N)=O)sc1-c1ccnc(C(C)(C)C)n1 |  |  |  | 62 | > 10000 |  |  |  |  |  | fraction unbound [4]: 0.06; clearance [6]: 21 mL/min/kg; Vd [7]: 1.2 L/kg; half-life [8]: 1.2 h
Cc1nc(NC(=O)N2CCC[C@H]2C(N)=O)sc1-c1ccnc(C(C)(C)C)c1 |  | 720 | 8000 | 77 | > 10000 | 330 | 430 |  |  |  | clearance [6]: 39 mL/min/kg; Vd [7]: 1.4 L/kg; half-life [8]: 3.4 h
CNC(=O)[C@@H]1CCCN1C(=O)Nc1nc(C)c(-c2ccnc(C(C)(C)C)c2)s1 | > 10000 | 5800 | > 10000 | 104 |  | 4200 | 4600 | > 9100 | 2700 |  | 
Cc1nc(NC(=O)N2CCC[C@@H]2C(N)=O)sc1-c1ccnc(C(C)(C)C)c1 |  |  |  | 36 |  | 3300 | > 10000 | 8200 |  |  | 
Cc1nc(NC(=O)N2CCC[C@H]2C(N)=O)sc1-c1ccnc(C2(C#N)CC2)c1 | 640 | > 10000 | > 10000 |  | > 10000 | 2000 | 1100 |  |  | 41 | 
Cc1nc(NC(=O)N2CCC[C@H]2C(N)=O)sc1-c1ccnc(C2CCC2)n1 | 440 | > 10000 | 7300 |  | > 10000 | 690 | 610 | 1800 | 20 | 53 | 
Cc1nc(NC(=O)N2CCC[C@H]2C(N)=O)sc1-c1cc(C(C)C)ncn1 | 4600 | > 10000 | > 10000 |  |  |  |  | > 9100 | 320 |  | 
Cc1nc(NC(=O)N2CCC[C@H]2C(N)=O)sc1-c1ccnc(C(C)(C)C(F)(F)F)c1 [ALPELISIB] |  |  |  |  |  |  |  |  |  |  | Cmax [14]: 520 nM; Cmax [15]: 1070 nM; fraction unbound [4]: 0.057; IC50 [16]: > 9100 nM; clearance [17]: 10 mL/min/kg; clearance [6]: 10 mL/min/kg; clearance [18]: 8 mL/min/kg; bioavailability [19]: 140%; bioavailability [20]: 106%; Vd [7]: 1.9 L/kg; IC50 [21]: > 9100 nM; IC50 [22]: > 9100 nM; IC50 [23]: > 10000 nM; half-life [8]: 2.9 h; IC50 [24]: > 9100 nM; clearance [25]: 8 mL/min/kg; Cmax [26]: 190 nM

The remaining compounds from weak to strong by IC50 [2], led by results:

IC50 [1] [nM] | IC50 [2] [nM] | IC50 [3] [nM] | microsomal CLint [5] [µL/min/mg] | IC50 (Cytochrome P450 3A4) [nM] | IC50 [9] [nM] | IC50 [10] [nM] | IC50 [11] [nM] | IC50 [12] [nM] | microsomal CLint [13] [µL/min/mg] | Compound | also measured
340 | 4900 | > 10000 |  |  | 430 | 1400 |  |  | 17 | CC(C)(c1cc(-c2sc(NC(=O)N3CCC[C@H]3C(N)=O)nc2Cl)ccn1)C(F)(F)F | 
 | 3000 | 9600 |  | > 10000 | 810 | 690 | 3100 |  | 47 | Cc1nc(NC(=O)N2CCC[C@H]2C(N)=O)sc1-c1ccnc(C2(C)CC2)n1 | fraction unbound [4]: 0.029; clearance [6]: 8 mL/min/kg; Vd [7]: 0.9 L/kg; half-life [8]: 1.7 h
140 | 2900 | 2400 |  | > 10000 | 1100 | 830 |  | 9.5 | 27 | CC(C)(c1cc(-c2cnc(NC(=O)N3CCC[C@H]3C(N)=O)s2)ccn1)C(F)(F)F | 
170 | 2500 | 4400 |  |  | 340 | 410 |  |  | 96 | CCN(CC)c1nccc(-c2sc(NC(=O)N3CCC[C@H]3C(N)=O)nc2C)n1 | 
230 | 1600 | 6400 |  |  | 290 | 320 | 1200 | 19 | 44 | Cc1nc(NC(=O)N2CC[C@H]2C(N)=O)sc1-c1ccnc(C(C)(C)C)n1 | 
100 | 1300 | 5900 |  | > 10000 | 960 | 1400 | 4000 | 16 | 36 | Cc1nc(NC(=O)N2CCC[C@H]2C(N)=O)sc1-c1ccnc(C(C)C)n1 | 
2500 | 770 | > 10000 | 186 |  | 590 | 930 | 4900 | 620 |  | Cc1nc(NC(=O)N2CCCC2)sc1-c1ccnc(C(C)(C)C)c1 | 
130 | 620 | 2100 |  |  |  |  |  |  |  | Cc1nc(NC(=O)N2CCC[C@H]2C(N)=O)sc1-c1ccc(-n2cccn2)cc1 | 

Source: ChEMBL document CHEMBL2396607 (Bioorg Med Chem Lett, 2013)
